Patent US20210145802A1, “THERAPY FOR OPHTHALMOLOGICAL CONDITIONS” (WREN THERAPEUTICS LIMITED, priority 2018, published 2021)

What was measured:
Aβ42 oligomers = target: T1, Aβ42 oligomers (Homo sapiens, UniProt P05067); test: Ca2+ influx assay (lipid vesicle disruption by aggregates); assay type: biochemical; details: 2 μM Aβ42; 5-fold excess added at 0 h; measured at 2 h
T1 construct: […]; made in house; host or cells: E. coli BL21 Gold (DE3)
Procedure: Single vesicles tethered to PLL-PEG coated borosilicate glass coverslides (VWR International, 22×22 mm, product number 63 1-0122) were placed on an oil immersion objective mounted on an inverted Olympus IX-71 microscope. Each coverslide was affixed at Frame-Seal incubation chambers and was incubated with 50 μL of HEPES buffer of pH 6.5. Just before the imaging, the HEPES buffer was replaced with 50 μL Ca^2+ containing buffer solution L-15. 16 (4×4) images of the coverslide were recorded under three different conditions (background, in the presence of Aβ42 and after addition of ionomycin (Cambridge Bioscience Ltd, Cambridge, UK), respectively). The distance between each field of view was set to 100 μm, and was automated (bean-shell script, Micromanager) to avoid any user bias. After each measurement the script allowed the stage (Prior H117, Rockland, Mass., USA) to move the field of view back to the start position such that identical fields of view could be acquired for the three different conditions. Images of the background were acquired in the presence of L15 buffer. For each field of view 50 images were taken with an exposure time of 50 ms. […] The recorded images were analysed using ImageJ to determine the fluorescence intensity of each spot under the three different conditions in the presence of an aggregation mixture incubated with and without Netoglitazone.

[1] = tested on: CL2355 (Aβ1-42Neur worms); test: Chemotaxis assay, Aβ1-42Neur worms; assay type: in vivo, C. elegans; details: 5 μM; 5 days at 24° C.; day 6 of adulthood; compared to untreated worms
Procedure: Chemotaxis measurements were carried out as previously described (O. Margie, C. Palmer, I. Chin-Sang, C. elegans Chemotaxis Assay. J Vis Exp, e50069 (2013)) and as illustrated in FIG. 6C. Briefly, adult synchronized transgenic C. elegans CL2355 worms and wild-type healthy worms were incubated with or without 5 μM Netoglitazone for 5 days 24° C. At day 6 of adulthood the worms were then collected, washed with M9 buffer three times, and assayed in 9 cm screening plates (1.9% agar, 1 mM CaCl2, 1 mM MgSO4, and 25 mM phosphate buffer, pH 6.0) seeded with 50 μl of a 10× culture of Op50 Bacteria or sterile water, as attractant or test conditions, respectively and in combination with 1 μl of 1M Levamisole. Ca. 200 worms were placed in the central quadrant of the plate and incubated at 24° C. for 8 h, after which the chemotaxis index (CI) was scored. The CI was defined as follows (O. Margie et al (2013)):
(number of worms at the attractant locations−number of worms at the control locations)/total number of worms on the plate
Worms that were remaining in the central quadrant were excluded.

GMC101 (Aβ worms) = test: Automated motility assay, Aβ worms; assay type: in vivo, C. elegans
Procedure: GMC101 dvIs100[unc-54p::A-beta-1-42::unc-54 3′UTR+mt1-2p::GFP]. mt1-2p::GFP produces constitutive expression of GFP in intestinal cells. unc-54p::A-beta-1-42 expresses full-length human Aβ42 peptide in body wall muscle cells that aggregates in vivo. Shifting L4 or young adult animals from 20° to 24° C. causes paralysis (G. McColl et al., Utility of an improved model of amyloid-beta (Aβ1-42) toxicity in Caenorhabditis elegans for drug screening for Alzheimer's disease. Mol Neurodegener. 7, 57 (2012));
Briefly, Netoglitazone stocks (5 mM in 100% DMSO) were used at an appropriate concentration to seed 9-cm NGM plates. Plates were then placed in a laminar flow hood at room temperature (22° C.) for up to 4 hours to dry. C. elegans cultures were then transferred onto media seeded with compound as L4 stage or Day 3 for late treatments and incubated at 24° for the whole experiment. Experiments were carried out at different Netoglitazone concentrations ranging from 0.05 to 500 μM in 1% DMSO. As controls, plates seeded only with 1% DMSO were used.
All C. elegans populations were cultured at 20° C. and developmentally synchronized from a 4 h egg-lay. At 64-72 h post-egg-lay (time zero), individuals were transferred to FUDR plates, and body movements were assessed over the times indicated. At different ages, the animals were washed off the plates with M9 buffer and spread over an OP-50 unseeded 9 cm plate, after which their movements were recorded at 20 fps using a recently developed microscopic procedure (M. Perni et al., Massively parallel C. elegans tracking provides multi-dimensional fingerprints for phenotypic discovery. J. Neurosci. Methods. 306, 57-67 (2018)) for 1 min. Up to 600 animals were counted in each experiment in duplicate unless stated otherwise. […]
In order to screen for the effect of therapeutics in the most robust way, a wide field-of-view nematode-tracking platform (WF-NTP) was used, which enables the simultaneous investigation of multiple phenotypic readouts on large worm populations. […]

T1 sequence (P05067 671-713): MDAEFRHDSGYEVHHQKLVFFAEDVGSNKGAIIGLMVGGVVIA

## O=C1NC(=O)C(Cc2ccc3cc(OCc4ccccc4F)ccc3c2)S1 (centres unmarked) [Netoglitazone]
Aβ42 oligomers
  protection against vesicle disruption (Ca2+ influx) by Aβ42 species: protected against the neurotoxic species-induced vesicle disruption
[1]
  chemotaxis index: significantly improved
GMC101 (Aβ worms); 0-10 μM, administered at L4
  mobility of Aβ worms after treatment at L4: greatly improves the mobility
GMC101 (Aβ worms); administered at D3, D5 of adulthood
  mobility after late administration: increase
GMC101 (Aβ worms); administered at L4, observed at D3 of adulthood
  concentration range of best protective effect on mobility: 0.5 to 5 µM
